Patent US20260327225A1, “HETEROCYCLIC COMPOUNDS AS TRIGGERING RECEPTOR EXPRESSED ON MYELOID CELLS 2 AGONISTS AND METHODS OF USE” (VIGIL NEUROSCIENCE, INC., priority 2023, published 2026)

Target: T1, human TREM2 (Homo sapiens, UniProt Q9NZC2)
T1 construct: expressed in transfected cells; host or cells: HEK293T-hTREM2 cells (HEK cell line expressing human TREM2 and DAP12)
Assay: TREM2 agonist potency by cellular phosphorylation of Syk (AlphaLisa) in HEK293T-hTREM2 cells expressing human TREM2 and DAP12
Assay type: cell-based
Settings: HEK293 cells expressing hTREM2 and DAP12; 45 minutes at room temperature; Syk phosphorylation, AlphaLisa; read-out: hTREM2 EC50
Procedure: In vitro Measurement of Triggering Receptor Expressed on Myeloid Cells 2 activity using cellular phosphorylation of Spleen Tyrosine Kinase (“Syk”) Assays
Measurement of TREM2 agonist potency was done using a HEK cell line expressing human TREM2 and DAP12 (HEK293T-hTREM2 cells). Binding of small molecules to, and activation of, TREM2 increases the phosphorylation of Syk. The resultant levels of Syk phosphorylation are measured using a commercial AlphaLisa reagent kit. To perform the assay, HEK-hTREM2 cells were plated at 14,000 cells per well in a 384 well plate, in 25 μL of complete growth media and incubated at 37° C., 5% CO2 for 20-24 hours.
Prior to the assay, test compounds were diluted in the 384 well plates in assay buffer and allowed to equilibrate for 30 minutes. Growth media was removed from cell plates by inversion on blotting paper, and 25 μL of test articles in assay buffer was added to cells. Cells were incubated for 45 minutes at room temperature. After 45 minutes, assay buffer was removed and 10 μL of lysis buffer was added. Plates were shaken for 20 minutes at 350 RPM at room temperature. After complete lysis, AlphaLisa reagents were added to the lysate, and fluourescence intensity was measured using a Perkin Elmer Envision plate reader. Intensities were used to generate a standard curve, and % activation was calculated. Curve fitting was performed using Prism v9 software, log(agonist) vs response—variable slope (four parameters), and EC50s were calculated from the curve fit.
The results presented in Table B have been generated with the in vitro assay described above. This assay may be used to test any of the compounds described herein to assess and characterize a compound's ability to act as an agonist of TREM2.

T1 sequence (Q9NZC2 19-230): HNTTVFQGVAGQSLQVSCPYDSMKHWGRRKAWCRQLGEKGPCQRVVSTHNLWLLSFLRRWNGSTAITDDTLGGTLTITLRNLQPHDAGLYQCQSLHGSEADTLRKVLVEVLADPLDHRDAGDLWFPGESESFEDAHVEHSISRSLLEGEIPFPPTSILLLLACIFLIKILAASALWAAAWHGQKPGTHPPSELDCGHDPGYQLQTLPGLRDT
T1 sequence (O43914 22-113 partner): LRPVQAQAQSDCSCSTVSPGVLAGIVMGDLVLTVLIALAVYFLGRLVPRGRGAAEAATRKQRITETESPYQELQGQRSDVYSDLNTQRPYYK

Row | Compound | EC50 [nM]
1 | Cc1nc2nc(N3C[C@@H](C)O[C@@H](c4ccnc(N(C)C)c4)C3)nc(C34CC(C(F)(F)F)(C3)C4)c2nc1C (racemic) [Example 142, N,N-dimethyl-4-[rac-(2S,6R)-4-[6,7-dimethyl-4-[3-(trifluoromethyl)-1-bicyclo[1.1.1]pentanyl]pteridin-2-yl]-6-methyl-morpholin-2-yl]pyridin-2-amine] | 100 to 500
2 | Cc1cc2c(-c3cccs3)nc(N3C[C@@H](C)O[C@@H](c4cnn(C5CC5)c4)C3)nc2nc1C [Example 69, (2S,6R)-2-(1-cyclopropyl-pyrazol-4-yl)-4-[6,7-dimethyl-4-(2-thienyl)pyrido-[2,3-d]pyrimidin-2-yl]-6-methyl-morpholine] | 100 to 500
3 | Cc1noc(-c2cc3c(C45CC(C(F)(F)F)(C4)C5)nc(N4C[C@@H](C)O[C@@H](c5cnn(C6CC6)c5)C4)nc3nc2C)n1 [Example 22, (2S,6R)-2-(1-cyclopropyl-pyrazol-4-yl)-6-methyl-4-[7-methyl-6-(3-methyl-1,2,4-oxadiazol-5-yl)-4-[3-(trifluoromethyl)-1-bicyclo[1.1.1]pentanyl]-pyrido[2,3-d]pyrimidin-2-yl]morpholine] | < 100
4 | Cc1nc2nc(C3CCOC(c4ccn5nccc5c4)C3)nc(-c3ccc(F)cc3F)c2nc1C (centres unmarked) [Example 93, 4-(2,4-difluorophenyl)-6,7-dimethyl-2-(2-pyrazolo[1,5-a]pyridin-5-yltetrahydropyran-4-yl)pteridine] | < 100
5 | Cc1nc2nc(N3C[C@@H](C)O[C@@H](c4cnn(C5CC5)c4)C3)nc(C34CC(C(F)(F)F)(C3)C4)c2cc1C(F)(F)Cl (racemic) [Example 90, (2S,6R)-4-(6-(chloro-difluoromethyl)-7-methyl-4-(3-(trifluoromethyl)-bicyclo[1.1.1]pentan-1-yl)pyrido[2,3-d]pyrimidin-2-yl)-2-(1-cyclopropyl-1H-pyrazol-4-yl)-6-methylmorpholine] | 100 to 500
6 | Cc1nnc(-c2cc3c(-c4ccc(F)cc4F)nc(N4C[C@@H](C)O[C@@H](c5cnn(C6CC6)c5)C4)nc3nc2C)o1 [Example 12, (2S,6R)-2-(1-cyclopropylpyrazol-4-yl)-4-[4-(2,4-difluorophenyl)-7-methyl-6-(5-methyl-1,3,4-oxadiazol-2-yl)pyrido[2,3-d]pyrimidin-2-yl]-6-methyl-morpholine] | < 100
7 | Cc1nc2nc([C@H]3CCO[C@@H](c4cnn(C5CC5)c4)C3)nc(C34CC(C#N)(C3)C4)c2nc1C [Example 119, 3-(2-((2R,4S)-2-(1-cyclopropyl-1H-pyrazol-4-yl)tetrahydro-2H-pyran-4-yl)-6,7-dimethylpteridin-4-yl)bicyclo[1.1.1]pentane-1-carbonitrile] | 100 to 500
8 | COC(=O)c1cc2c(-c3ccc(F)cc3F)nc(N3C[C@@H](C)O[C@@H](c4cnn(C5CC5)c4)C3)nc2nc1C [Example 1, methyl 2-[(2S,6R)-2-(1-cyclopropylpyrazol-4-yl)-6-methyl-morpholin-4-yl]-4-(2,4-difluorophenyl)-7-methyl-pyrido[2,3-d]pyrimidine-6-carboxylate] | < 100
9 | Cc1nc2nc(N3C[C@@H](C)O[C@@H](c4cnn(C5CC5)c4)C3)nc(C34CC(C#N)(C3)C4)c2nc1C [Example 102, 3-[2-[(2S,6R)-2-(1-cyclopropylpyrazol-4-yl)-6-methyl-morpholin-4-yl]-6,7-dimethyl-pteridin-4-yl]bicyclo[1.1.1]pentane-1-carbonitrile] | < 100
10 | Cc1nc2nc([C@H]3CCO[C@@H](c4cnn(C5CC5)c4)C3)nc(C34CC(C(F)(F)F)(C3)C4)c2cc1-c1cn(C)nn1 [Example 28, 2-((2R,4S)-2-(1-cyclopropyl-1H-pyrazol-4-yl)tetrahydro-2H-pyran-4-yl)-7-methyl-6-(1-methyl-1H-1,2,3-triazol-4-yl)-4-(3-(trifluoromethyl)-bicyclo[1.1.1]pentan-1-yl)pyrido[2,3-d]pyrimidine] | > 500
11 | Cc1nc2nc([C@H]3CCO[C@@H](c4cnn(C5CC5)c4)C3)nc(C34CC(C(F)(F)F)(C3)C4)c2cc1[S+](C)[O-] (stereo partly drawn) [Example 32, 2-[(2R,4S)-2-(1-cyclopropylpyrazol-4-yl)tetrahydropyran-4-yl]-7-methyl-6-methylsulfinyl-4-[3-(trifluoromethyl)-1-bicyclo[1.1.1]pentanyl]pyrido[2,3-d]pyrimidine] | < 100
12 | Cc1nc2nc([C@@H]3CCO[C@@H](c4ccnc(N(C)C)c4)C3)nc(C34CC(C(F)(F)F)(C3)C4)c2nc1C (racemic) [Example 125, N,N-dimethyl-4-[rac-4-[6,7-dimethyl-4-[3-(trifluoromethyl)-1-bicyclo[1.1.1]pentanyl]pteridin-2-yl]tetrahydropyran-2-yl]pyridin-2-amine] | 100 to 500
13 | Cc1nc2nc(C3CCOC(c4ccc5ncnn5c4)C3)nc(-c3ccc(F)cc3F)c2nc1C (centres unmarked) [Example 95] | < 100
14 | Cc1cnc(-c2cc3c(-c4ccc(F)cc4F)nc(N4C[C@@H](C)O[C@@H](c5cnn(C6CC6)c5)C4)nc3nc2C)o1 [Example 13, (2S,6R)-2-(1-cyclopropylpyrazol-4-yl)-4-[4-(2,4-difluorophenyl)-7-methyl-6-(5-methyloxazol-2-yl)pyrido[2,3-d]pyrimidin-2-yl]-6-methyl-morpholine] | < 100
15 | Cc1nc2nc(N3C[C@@H](C)O[C@@H](c4cnn(C5CC5)c4)C3)nc(-c3ccc(F)cc3F)c2cc1C(=O)O [Example 3, 2-[(2S,6R)-2-(1-cyclopropylpyrazol-4-yl)-6-methyl-morpholin-4-yl]-4-(2,4-difluorophenyl)-7-methyl-pyrido[2,3-d]pyrimidine-6-carboxylic acid] | > 500
16 | Cc1nc2nc(C3CCOC(c4ccc5nn(C)cc5c4)C3)nc(-c3ccc(F)cc3F)c2nc1C (centres unmarked) [Example 114, 4-(2,4-difluorophenyl)-6,7-dimethyl-2-[2-(2-methylindazol-5-yl)tetrahydropyran-4-yl]pteridine] | < 100
17 | Cc1nc2nc(C3CCOC(c4ccc5nnc(C)n5c4)C3)nc(-c3ccc(F)cc3F)c2nc1C (centres unmarked) [Example 99, 4-(2,4-difluorophenyl)-6,7-dimethyl-2-[2-(3-methyl[1,2,4]-triazolo[4,3-a]pyridin-6-yl)tetrahydropyran-4-yl]pteridine] | < 100
18 | Cc1nc2nc(N3CCO[C@@H](c4cnn(C)c4)C3)nc(C3CCCCC3)c2cc1C#N [Example 45, 4-cyclohexyl-7-methyl-2-[(2S)-2-(1-methyl-pyrazol-4-yl)morpholin-4-yl]pyrido[2,3-d]pyrimidine-6-carbonitrile] | 100 to 500
19 | COC(=O)c1cc2c(-c3ccc(F)cc3F)nc([C@H]3CCO[C@@H](c4cnn(C5CC5)c4)C3)nc2nc1C [Example 8, methyl 2-((2R,4S)-2-(1-cyclopropyl-1H-pyrazol-4-yl)tetrahydro-2H-pyran-4-yl)-4-(2,4-difluorophenyl)-7-methylpyrido[2,3-d]-pyrimidine-6-carboxylate] | < 100
20 | Cc1nc2nc(N3C[C@@H](C)O[C@@H](c4cnn(C5CC5)c4)C3)nc(-c3ccc(F)cc3F)c2cc1C(=O)N(C)C [Example 2, 2-((2S,6R)-2-(1-cyclopropyl-1H-pyrazol-4-yl)-6-methylmorpholino)-4-(2,4-difluorophenyl)-N,N-7-trimethylpyrido[2,3-d]pyrimidine-6-carboxamide] | > 500
